Assay results reported in article PMC5390258, “CMD-05, a novel promising clinical anti-diabetic drug candidate, in vivo and vitro studies” (Scientific Reports, 2017).

Tests used:
pancreatic islets = assay: Morphologic observation on islet of model rats (HE, immunofluorescence, TEM); format: in vivo, rat
Description: HE staining on paraffin section was performed as described in reports. In brief, paraffin section were rinsed with PBS, fixed with 4% paraformaldehyde (PFA) for 30 min and then washed by PBS. The pancreas tissue were stained with Hematoxylin-Eosin, afterwards, they were dehydrated in alcohols. Morphological changes of the pancreas tissue were observed under an optical microscope (Olympus, Japan) after mounted by neutral resins.
Pancreas sections (8 μm) were cut in a cryostat and collected on superfrost microscope slides. The slides were stored at −20 °C till analysis. Immunofluorescent staining was used for detection of insulin (β cells) (1:100, Anti-Insulin antibody, Abcam), glucagon (α cells) (1:200, Anti-glucagon, Abcam). Briefly, the slides were blocked in 5% normal goat serum for 1 h in a humidified chamber. Slides were exposed to primary antibodies at a dilution of […] in antibody diluting solution at 4 °C overnight, washed in PBS, and exposed to appropriate secondary antibodies linked to the fluorescent probes (Goat Anti-Guinea pig IgG/FITC and Alexa Fluor 594-conjugated Goat Anti-Rabbit IgG) (Bioss and Proteintech, China) in antibody diluting solution for 1 h and DAPI (Beyotime, China) for 5 min in the dark. After washed by PBS, slides were mounted with a glycerol mounting medium. Images were collected using a fluorescent microscope (Nikon, Japan).
For transmission electron microscopy, about 1 mm^3 tissue specimens were obtained from the same pancreas region of the control and experimental groups of rats, and fixed overnight in 2% glutaraldehyde (pH7.3) in 0.1 M phosphate buffer saline at 4 °C. Images of pancreatic islets were captured from random tissue sections using a transmission electron microscope.

INS-1 cells = assay: Proliferation of INS-1 cells (CCK-8); format: cell-based, rat; settings: 24 h, CCK-8, vs DMSO
Description: The rat insulinoma cell line INS-1 (832/13) was obtained from the Department of endocrinology at 1st affiliated hospital of Chongqing medical university. Cells were cultured in RPMI 1640 (Gibco, USA) (11 mmol/l glucose, 100 units/ml penicillin, […] streptomycin, 10 mmol/l HEPES pH 7.4) supplemented with 10% FBS (Gibco, USA), 2 mmol/l L-glutamine, 1 mmol/l pyruvate, and 50 μmol/l β-mercaptoethanol. […] 10 μl of CCK-8 was then added and incubated at 37 °C and 5% CO2 for 1.5 h and […] (OD) was read at 460 nm with microplate reader. The OD value represents the proliferation activity.

insulin = assay: Plasma insulin levels in model rats (ELISA); format: in vivo, rat; settings: 3 mg/kg, fasted and glucose load plasma
Description: (§1) To establish model of T2DM, male rats (80–100 g, 9-week-old)[49] were fed high fat diet (HFD) (20% sugar, 10% lard, 10% egg yolk and 60% basal feed) after a week of normal diet. After 4 weeks, rats were injected once with low-dose streptozotocin (Solarbio, China) (STZ, 30 mg/kg i.p) to induce partial insulin deficiency, and then continuously fed HFD for 4 weeks after injection of STZ. Then the model rats were oral administrated drugs for 30 days. The body weights were recorded once a week.
(§2) Oral glucose load, fasted and random blood samples were collected from rats on the 28th days, the 29th days and the last of the treatment of drugs, respectively. Plasma levels of insulin and GLP-1 were measured by ELISA kits (YuanYe, China) according to the manufacturer’s recommendation. The levels of HbA1c, Triglycerides (TG), total cholesterol (TC) and low density lipoprotein cholesterol (LDL-C) in blood samples were measured by commercial assay kits (JianCheng, Nanjing, China) according to the manufacturer’s directions.

NCI-H716 cells = assay: GLP-1 secretion in NCI-H716 cells; format: cell-based, human; settings: 10, 30, 100 μM, 2 h, compared with solvent group
Description: Human enteroendocrine NCI-H716 cells were maintained in suspension culture as described by the American Type Culture Collection guideline (ATCC). Two days before the experiments, cells were seeded into 12-well culture plates coated with Matrigel at 1 × 10^6 cells per well. Cells were incubated in RPMI 1640 containing 10% FBS at 37 °C for 48 h. […] After incubated for 2 h, GLP-1 concentrations from the supernatants were measured by ELISA kits (YuanYe, China).

TG, LDL-C = assay: TG and LDL-C plasma levels in model rats; format: in vivo, rat; settings: 3 mg/kg
Description: as §1, §2

[1] = Body weight of model rats; format: in vivo, rat; settings: 30 days treatment
Description: as §1

[2] = tested on: model rats (HFD/low-dose STZ, T2DM); assay: Oral glucose tolerance test (OGTT) in HFD/STZ T2DM model rats; format: in vivo, rat; settings: 3 mg/kg oral, model rats
Description: as §1
On the 1st day, 19th days and 29th days of treatment, oral glucose tolerance tests for model rats were carried out. […] The blood glucose levels were tested using Johnson one touch Ultra Test Strips on Johnson Performa blood glucose meter.

HbA1c = HbA1c level in blood of model rats; format: in vivo, rat; settings: 3 mg/kg, 30 days
Description: as §1, §2

Compound: N#C[C@@H]1CCCN1C(=O)CNC12CC3CC(CC(O)(C3)C1)C2 [vildagliptin, reference compound]
- distribution of β cells (insulin/glucagon double staining) (pancreatic islets; 30 days treatment): obviously improved
- mass of α-cells (insulin/glucagon double staining) (pancreatic islets; 30 days treatment): mildly reduced
- morphology of pancreatic islets (HE staining) (pancreatic islets; 30 days treatment): prevent islet from damage
- secretory granules in β cells (transmission electron microscopy) (pancreatic islets; compared with the model): obviously increased
- cells viabilities (proliferation) of INS-1 cells (INS-1 cells): increased
- insulin levels in plasma (insulin): significantly increased
- GLP-1 levels (secretion) (NCI-H716 cells): increased slightly without significance
- reduction of LDL-C level (TG, LDL-C): 15.97%
- reduction of TG level (TG, LDL-C): 38.79%
- body weights vs model group [1]: no significant difference
- percentage reduction of blood glucose levels in OGTT ([2]; 1st day): 8.9%
- percentage reduction of blood glucose levels in OGTT ([2]; 19th day): 10.1%
- percentage reduction of blood glucose levels in OGTT ([2]; 29th day): 17.8%
- reduction of the level of HbA1c (HbA1c): 2.0%
